# Experiments:
# photoreceptor cells [1] = assay type: in vivo, Brown Norway rats
# Procedure: Methods. Retinal detachments were created in the eyes of Brown Norway rats by injecting 10% hyaluronic acid into the subretinal space using a transvitreal approach. FK506 (tacrolimus) (5 mg/kg/day) diluted in PBS was administered by gastric gavage one day prior to the induction of retinal detachment, on the day of the induction, and for the two following days (n=6). Control animals received the same volume of PBS (0.5 cc) by gastric gavage one day prior to the induction of retinal detachment, on the day of the induction, and for the two following days (n=3). […] All eyes were enucleated 72 hours after retinal detachment induction and embedded in paraffin. Fourteen micrometer sections were subsequently obtained. DNA fragmentation was examined using terminal dUTP-biotin nick end-labeling (TUNEL). A masked observer counted TUNEL-positive cells and obtained an average from three adjacent standardized fields in two serial sections.
# [2] = system: calpain-mediated cleavage of calcineurin; assay: ALLM treatment in experimental retinal detachment, Western blot of calcineurin cleavage (Example 4, Experiment #2); assay type: in vivo, Brown Norway rats
# Text: The following experiments determine that calcineurin is cleaved after retinal detachment and that pharmacologic inhibition of calpain will prevent this activation. In particular, retinas of rats with experimental retinal detachment will be examined for biochemical evidence of calcineurin activation. These experiments also determine that calcineurin cleavage is mediated by the calcium-dependent enzyme, calpain. […] Finally, they determine that calcineurin inhibitors like FK506 have a neuroprotective effect on photoreceptor cells death.
# One day prior to surgical induction, animals are started on a treatment of ALLM (20 mg/kg/day, intraperitoneal administration), a calpain inhibitor, or vehicle control, and administration continues throughout the study. For this experiment, the animals are followed for three or five days after retinal detachment. At the end of this period, animals are sacrificed and their eyes are removed for either protein isolation or immunohistochemistry. Fellow eyes are used as controls. Western blot analysis is used to determine levels of retinal calcineurin and calcineurin cleavage products. Six animals per group are used.
# Retinal Detachment Model. […]
# caspase 4 = target: T1, caspase 4 (Homo sapiens, UniProt P49662); conditions: cited from earlier work
# T1 sequence (P49662 81-270 limits assumed): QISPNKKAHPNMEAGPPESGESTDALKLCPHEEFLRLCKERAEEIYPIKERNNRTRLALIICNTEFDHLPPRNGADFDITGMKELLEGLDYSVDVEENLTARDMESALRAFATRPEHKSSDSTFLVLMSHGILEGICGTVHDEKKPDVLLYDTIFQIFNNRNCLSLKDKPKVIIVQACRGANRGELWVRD
# T1 sequence (P49662 290-377 limits assumed): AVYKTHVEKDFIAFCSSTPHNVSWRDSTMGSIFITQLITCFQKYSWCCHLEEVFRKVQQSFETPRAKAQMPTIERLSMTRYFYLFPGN
# caspase 7 = target: T2, caspase 7 (Homo sapiens, UniProt P55210); conditions: cited from earlier work
# T2 sequence (P55210 24-198 limits assumed): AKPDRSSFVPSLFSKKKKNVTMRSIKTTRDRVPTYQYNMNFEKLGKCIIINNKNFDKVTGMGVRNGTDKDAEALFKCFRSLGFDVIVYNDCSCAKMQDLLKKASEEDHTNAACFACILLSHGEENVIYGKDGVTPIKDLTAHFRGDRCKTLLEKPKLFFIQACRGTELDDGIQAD
# T2 sequence (P55210 207-303 limits assumed): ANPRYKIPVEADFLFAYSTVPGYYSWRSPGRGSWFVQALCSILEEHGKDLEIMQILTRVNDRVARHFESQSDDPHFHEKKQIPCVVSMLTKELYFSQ
# caspase 3 = target: T3, caspase 3 (Homo sapiens, UniProt P42574); conditions: cited from earlier work
# T3 sequence (P42574 29-175 limits assumed): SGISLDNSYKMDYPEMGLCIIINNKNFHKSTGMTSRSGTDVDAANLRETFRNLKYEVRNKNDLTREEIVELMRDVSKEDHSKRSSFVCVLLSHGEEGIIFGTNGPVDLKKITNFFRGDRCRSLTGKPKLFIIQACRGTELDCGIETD
# T3 sequence (P42574 176-277 limits assumed): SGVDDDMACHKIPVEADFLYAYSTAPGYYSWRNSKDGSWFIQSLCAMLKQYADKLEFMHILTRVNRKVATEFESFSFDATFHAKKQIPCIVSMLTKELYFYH
# caspase 1 = target: T4, caspase 1 (Homo sapiens, UniProt P29466); conditions: cited from earlier work
# T4 sequence (P29466 120-297 limits assumed): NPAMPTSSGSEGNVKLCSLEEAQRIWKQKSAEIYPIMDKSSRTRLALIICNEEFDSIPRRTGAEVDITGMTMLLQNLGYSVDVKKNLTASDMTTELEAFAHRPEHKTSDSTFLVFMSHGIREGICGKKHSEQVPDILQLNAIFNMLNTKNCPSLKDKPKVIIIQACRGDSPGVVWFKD
# T4 sequence (P29466 317-404 limits assumed): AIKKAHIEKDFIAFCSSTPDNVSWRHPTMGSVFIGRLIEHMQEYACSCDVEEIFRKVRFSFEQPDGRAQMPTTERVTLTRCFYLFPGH
# photoreceptor cells [3] = assay: Caspase inhibitor injected into region of retinal detachment, TUNEL staining (Example 2); assay type: in vivo, Brown-Norway rats; conditions: 25 μl of 0.2, 2 or 20 mM inhibitor in DMSO into region of detachment; 72 hours; relative to untreated eyes
# Procedure: The caspase inhibitor, Z-Val-Ala-Asp-fluoromethylketone is dissolved in dimethyl sulfoxide (DMSO) to give the final concentrations of 0.2 mM, 2 mM, and 20 mM. After creating the retinotomy with the subretinal injector, a small amount of Healon® sodium hyaluronate is injected in the subretinal space so as to elevate the retina. After retinal elevation, a Hamilton syringe with a 33 gauge needle is introduced through the retinotomy site, and 25 μl of inhibitor is injected into the region of detachment. About 25 minutes later, Healon® sodium hyaluronate is injected, via the same retinotomy site, to maintain the retinal detachment. Healon® sodium hyaluronate is injected until resistance is detected.
# Only the right eyes of rats are used in evaluating the role of the Z-VAD-FMK inhibitor. The left eyes serve as the controls. Five animals are used for each concentration of inhibitor (namely, no inhibitor, 0.2 mM inhibitor, 2 mM inhibitor, and 20 mM inhibitor). For the no inhibitor control, 25 μl of DMSO is injected into the region of detachment followed by Healon® sodium hyaluronate.
# After 72 hours, the eyes are enucleated and the rats euthanized. The enucleated eyes are paraffin embedded as described in Example 1. Then, 6 μm sections from the posterior segments are analyzed by TUNEL staining as described in Example 1.
molecule,measurement,setting,value
"C=CC[C@@H]1/C=C(\C)C[C@H](C)C[C@H](OC)[C@H]2O[C@@](O)(C(=O)C(=O)N3CCCC[C@H]3C(=O)O[C@H](/C(C)=C/[C@@H]3CC[C@@H](O)[C@H](OC)C3)[C@H](C)[C@@H](O)CC1=O)[C@H](C)C[C@@H]2OC [FK506, FK506 (tacrolimus)]",TUNEL-positive cells (mean±SD),"photoreceptor cells [1]; FK506 5 mg/kg/day by gastric gavage, from one day prior to detachment, eyes enucleated 72 hours after retinal detachment, n=6",130.13±54.3
same,morphological signs of toxicity in the eyes,"photoreceptor cells [1]; rat, in vivo, 5 mg/kg/day",no morphological signs of toxicity
same,reduction in the mean number of TUNEL-positive cells,"photoreceptor cells [1]; treated group vs PBS control, 72 hours after detachment, p<0.05",35%
Ac-Leu-Leu-Met-H (aldehyde) [ALLM],levels of retinal calcineurin and calcineurin cleavage products,"[2]; ALLM 20 mg/kg/day intraperitoneal, three or five days after retinal detachment",inhibition of the calpain-mediated cleavage pathway
same,photoreceptor cell death,[2]; treatment with ALLM in experimental retinal detachment,protect photoreceptor cells from death
Ac-Tyr-Val-Ala-Asp-aldehyde (SEQ ID NO: 7),Ki,caspase 4,10 nM
same,Ki,caspase 7,≥ 50000 nM
same,Ki,caspase 3,≥ 50000 nM
same,Ki,caspase 1,10 nM
Z-Val-Ala-Asp-fluoromethylketone,inhibition of caspase 4,caspase 4,inhibits
same,inhibition of caspase 7,caspase 7,inhibits
same,inhibition of caspase 3,caspase 3,inhibits
same,TUNEL-positive photoreceptor cells in the region of retinal detachment,photoreceptor cells [3],fewer photoreceptor cells in the region of retinal detachment that stain TUNEL-positive
same,inhibition of caspase 1,caspase 1,inhibits

# Reference: patent US7592330B2, “Methods and compositions for preserving the viability of photoreceptor cells” (Massachusetts Eye and Ear Infirmary, priority 2005, dated 2009)
